# In patent US20220340629A1, “Myosin Derived Peptides and Related Compounds with Anticoagulant Activities” (THE SCRIPPS RESEARCH INSTITUTE, priority 0001, published 2022):
# Non-standard residues stand in square brackets, D forms with d. Residues, ends and D or L forms follow the SMILES beside them. NMeI = CC[C@H](C)[C@H](NC)C(=O)O; NMeA = CN[C@@H](C)C(=O)O; Nle = CCCC[C@H](N)C(=O)O
# Target: skeletal muscle myosin-supported prothrombin activation by factors Xa and Va (Homo sapiens, UniProt P00742)
# Sequence (P00742 41-179): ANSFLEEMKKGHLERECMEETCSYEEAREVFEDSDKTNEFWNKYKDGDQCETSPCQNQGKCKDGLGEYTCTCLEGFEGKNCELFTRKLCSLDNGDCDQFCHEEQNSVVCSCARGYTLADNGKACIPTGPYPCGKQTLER
# Sequence (P00742 235-488): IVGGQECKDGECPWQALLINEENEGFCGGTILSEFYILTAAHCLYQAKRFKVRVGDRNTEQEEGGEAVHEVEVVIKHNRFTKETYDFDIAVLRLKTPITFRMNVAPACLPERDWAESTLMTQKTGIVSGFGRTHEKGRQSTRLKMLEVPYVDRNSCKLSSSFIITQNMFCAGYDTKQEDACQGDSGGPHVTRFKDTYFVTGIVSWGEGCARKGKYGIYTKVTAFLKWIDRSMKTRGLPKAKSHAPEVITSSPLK
# Sequence (P12259 29-737 partner): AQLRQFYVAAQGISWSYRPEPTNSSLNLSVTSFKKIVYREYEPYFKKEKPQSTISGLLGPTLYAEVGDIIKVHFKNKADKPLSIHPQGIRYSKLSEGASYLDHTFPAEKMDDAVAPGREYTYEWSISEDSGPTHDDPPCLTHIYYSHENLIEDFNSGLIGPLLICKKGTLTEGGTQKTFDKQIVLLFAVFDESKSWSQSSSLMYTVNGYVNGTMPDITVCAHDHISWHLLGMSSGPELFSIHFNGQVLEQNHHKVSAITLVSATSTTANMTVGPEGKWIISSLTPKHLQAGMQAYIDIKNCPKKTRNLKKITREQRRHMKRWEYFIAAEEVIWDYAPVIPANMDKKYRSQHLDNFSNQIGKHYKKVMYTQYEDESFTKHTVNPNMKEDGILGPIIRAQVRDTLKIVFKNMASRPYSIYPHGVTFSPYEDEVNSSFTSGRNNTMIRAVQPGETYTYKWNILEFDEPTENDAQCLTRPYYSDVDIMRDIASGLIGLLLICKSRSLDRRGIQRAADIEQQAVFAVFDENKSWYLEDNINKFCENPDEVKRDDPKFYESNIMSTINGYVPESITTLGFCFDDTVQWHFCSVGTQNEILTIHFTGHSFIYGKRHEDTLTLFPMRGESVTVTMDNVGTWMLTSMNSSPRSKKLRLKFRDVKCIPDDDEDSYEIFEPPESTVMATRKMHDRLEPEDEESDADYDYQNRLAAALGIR
# Sequence (P12259 1574-2224 partner): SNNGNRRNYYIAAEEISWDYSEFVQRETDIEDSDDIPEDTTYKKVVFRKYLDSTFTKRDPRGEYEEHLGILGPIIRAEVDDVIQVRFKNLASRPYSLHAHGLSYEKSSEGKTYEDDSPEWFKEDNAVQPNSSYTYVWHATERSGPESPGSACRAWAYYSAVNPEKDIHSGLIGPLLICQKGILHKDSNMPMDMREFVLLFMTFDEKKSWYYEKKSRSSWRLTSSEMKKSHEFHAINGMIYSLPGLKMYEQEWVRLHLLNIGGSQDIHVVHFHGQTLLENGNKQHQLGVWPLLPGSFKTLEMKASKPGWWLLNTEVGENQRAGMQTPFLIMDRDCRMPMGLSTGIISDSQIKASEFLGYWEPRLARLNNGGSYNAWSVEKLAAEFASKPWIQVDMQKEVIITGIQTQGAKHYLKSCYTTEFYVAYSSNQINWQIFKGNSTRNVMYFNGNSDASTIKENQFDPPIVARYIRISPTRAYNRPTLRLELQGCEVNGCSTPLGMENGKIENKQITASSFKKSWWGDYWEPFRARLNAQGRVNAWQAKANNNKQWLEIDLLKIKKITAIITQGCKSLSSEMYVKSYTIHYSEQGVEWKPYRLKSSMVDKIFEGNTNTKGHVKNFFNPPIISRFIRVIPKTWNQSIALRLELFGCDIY
# Experiment: Assay 1A: prothrombin activation by factor Xa/factor Va/myosin in purified system
# Assay type: biochemical, human factors Xa and Va; rabbit skeletal muscle myosin
# Conditions: purified system, prothrombin activation with myosin; read-out: 1A (+ myosin) IC50
row,Compound,IC50 [nM]
1,CCCC[C@H](NC(=O)[C@H](Cc1c[nH]c2ccccc12)NC(=O)[C@@H]1CCCN1C(=O)[C@H](Cc1c[nH]c2ccccc12)NC(=O)[C@H](Cc1c[nH]cn1)NC(=O)[C@H](CCCCN)NC(=O)[C@@H](NC(=O)[C@H](CC(N)=O)NC(=O)[C@H](CCCC)NC(=O)[C@H](Cc1ccccc1)NC(=O)[C@H](CO)NC(=O)[C@H](CCCNC(=N)N)NC(=O)[C@@H](NC(=O)[C@H](CC(N)=O)NC(=O)[C@H](Cc1ccc(O)cc1)NC(=O)[C@H](CCC(N)=O)NC(=O)[C@@H](NC(=O)[C@H](CS)NC(=O)[C@H](Cc1ccccc1)NC(=O)[C@H](C)N(C)C(=O)[C@H](C)N)[C@@H](C)CC)[C@@H](C)CC)C(C)C)C(=O)N[C@@H](CCCCN)C(N)=O [HC191] (H-A[NMeA]FCIQYNIRSF[Nle]NVKHWPW[Nle]K-NH2; N-terminus assumed),1600
2,CCCC[C@H](NC(=O)[C@H](Cc1c[nH]c2ccccc12)NC(=O)[C@@H]1CCCN1C(=O)[C@H](Cc1c[nH]c2ccccc12)NC(=O)[C@H](Cc1c[nH]cn1)NC(=O)[C@H](CCCCN)NC(=O)[C@@H](NC(=O)[C@H](CC(N)=O)NC(=O)[C@H](CCCC)NC(=O)[C@H](Cc1ccccc1)NC(=O)[C@H](CO)NC(=O)[C@H](CCCNC(=N)N)NC(=O)[C@@H](NC(=O)[C@H](CC(N)=O)NC(=O)[C@H](Cc1ccc(O)cc1)NC(=O)[C@H](CCC(N)=O)NC(=O)[C@@H](NC(=O)[C@H](CS)NC(=O)[C@H](Cc1ccccc1)NC(=O)[C@H]([C@@H](C)CC)N(C)C(=O)[C@H](C)N)[C@@H](C)CC)[C@@H](C)CC)C(C)C)C(=O)N[C@@H](CCCCN)C(N)=O [HC192] (H-A[NMeI]FCIQYNIRSF[Nle]NVKHWPW[Nle]K-NH2; N-terminus assumed),2200

# Same assay, conditions: purified system; skeletal muscle myosin, factor Va 5 nM, factor Xa 0.2 nM, prothrombin 0.75 μM, 10 min; read-out: 1A (+myosin)
row,Compound,IC50 [nM]
1,CC[C@H](C)[C@H](NC(=O)[C@H](C)N)C(=O)N[C@@H](Cc1ccccc1)C(=O)N[C@@H](CS)C(=O)N[C@H](C(=O)N[C@@H](CCC(N)=O)C(=O)N[C@@H](Cc1ccc(O)cc1)C(=O)N[C@@H](CC(N)=O)C(=O)N[C@H](C(=O)N[C@@H](CCCNC(=N)N)C(=O)N[C@@H](CO)C(=O)N[C@@H](Cc1ccccc1)C(=O)N[C@@H](CCSC)C(=O)N[C@@H](C)C(=O)N[C@H](C(=O)N[C@@H](CCCCN)C(=O)N[C@@H](Cc1c[nH]cn1)C(=O)N[C@@H](Cc1c[nH]c2ccccc12)C(=O)N1CCC[C@H]1C(=O)N[C@@H](Cc1c[nH]c2ccccc12)C(=O)N[C@@H](CCSC)C(=O)N[C@@H](CCCCN)C(N)=O)C(C)C)[C@@H](C)CC)[C@@H](C)CC [HC129] (H-AIFCIQYNIRSFMAVKHWPWMK-NH2; N-terminus assumed),4200
2,CC[C@H](C)[C@H](NC(=O)[C@H](C)N)C(=O)N[C@@H](Cc1ccccc1)C(=O)N[C@@H](CS)C(=O)N[C@H](C(=O)N[C@@H](CCC(N)=O)C(=O)N[C@@H](Cc1ccc(O)cc1)C(=O)N[C@@H](CC(N)=O)C(=O)N[C@H](C(=O)N[C@@H](CCCNC(=N)N)C(=O)N[C@@H](CO)C(=O)N[C@@H](Cc1ccccc1)C(=O)N[C@@H](CCSC)C(=O)N[C@@H](CC(N)=O)C(=O)N[C@@H](C)C(=O)N[C@@H](CCCCN)C(=O)N[C@@H](Cc1c[nH]cn1)C(=O)N[C@@H](Cc1c[nH]c2ccccc12)C(=O)N1CCC[C@H]1C(=O)N[C@@H](Cc1c[nH]c2ccccc12)C(=O)N[C@@H](CCSC)C(=O)N[C@@H](CCCCN)C(N)=O)[C@@H](C)CC)[C@@H](C)CC [HC130] (H-AIFCIQYNIRSFMNAKHWPWMK-NH2; N-terminus assumed),2100
3,CC[C@H](C)[C@H](NC(=O)[C@H](C)N)C(=O)N[C@@H](Cc1ccccc1)C(=O)N[C@@H](CS)C(=O)N[C@H](C(=O)N[C@@H](CCC(N)=O)C(=O)N[C@@H](Cc1ccc(O)cc1)C(=O)N[C@@H](CC(N)=O)C(=O)N[C@H](C(=O)N[C@@H](CCCNC(=N)N)C(=O)N[C@@H](CO)C(=O)N[C@@H](Cc1ccccc1)C(=O)N[C@@H](CCSC)C(=O)N[C@@H](CC(N)=O)C(=O)N[C@H](C(=O)N[C@@H](C)C(=O)N[C@@H](Cc1c[nH]cn1)C(=O)N[C@@H](Cc1c[nH]c2ccccc12)C(=O)N1CCC[C@H]1C(=O)N[C@@H](Cc1c[nH]c2ccccc12)C(=O)N[C@@H](CCSC)C(=O)N[C@@H](CCCCN)C(N)=O)C(C)C)[C@@H](C)CC)[C@@H](C)CC [HC131] (H-AIFCIQYNIRSFMNVAHWPWMK-NH2; N-terminus assumed),2200
4,CC[C@H](C)[C@H](NC(=O)[C@H](C)N)C(=O)N[C@@H](Cc1ccccc1)C(=O)N[C@@H](CS)C(=O)N[C@H](C(=O)N[C@@H](CCC(N)=O)C(=O)N[C@@H](Cc1ccc(O)cc1)C(=O)N[C@@H](CC(N)=O)C(=O)N[C@H](C(=O)N[C@@H](CCCNC(=N)N)C(=O)N[C@@H](CO)C(=O)N[C@@H](Cc1ccccc1)C(=O)N[C@@H](CCSC)C(=O)N[C@@H](CC(N)=O)C(=O)N[C@H](C(=O)N[C@@H](CCCCN)C(=O)N[C@@H](C)C(=O)N[C@@H](Cc1c[nH]c2ccccc12)C(=O)N1CCC[C@H]1C(=O)N[C@@H](Cc1c[nH]c2ccccc12)C(=O)N[C@@H](CCSC)C(=O)N[C@@H](CCCCN)C(N)=O)C(C)C)[C@@H](C)CC)[C@@H](C)CC [HC132] (H-AIFCIQYNIRSFMNVKAWPWMK-NH2; N-terminus assumed),3100
5,CC[C@H](C)[C@H](NC(=O)[C@H](C)N)C(=O)N[C@@H](Cc1ccccc1)C(=O)N[C@@H](CS)C(=O)N[C@H](C(=O)N[C@@H](CCC(N)=O)C(=O)N[C@@H](Cc1ccc(O)cc1)C(=O)N[C@@H](CC(N)=O)C(=O)N[C@H](C(=O)N[C@@H](CCCNC(=N)N)C(=O)N[C@@H](CO)C(=O)N[C@@H](Cc1ccccc1)C(=O)N[C@@H](CCSC)C(=O)N[C@@H](CC(N)=O)C(=O)N[C@H](C(=O)N[C@@H](CCCCN)C(=O)N[C@@H](Cc1c[nH]cn1)C(=O)N[C@@H](C)C(=O)N1CCC[C@H]1C(=O)N[C@@H](Cc1c[nH]c2ccccc12)C(=O)N[C@@H](CCSC)C(=O)N[C@@H](CCCCN)C(N)=O)C(C)C)[C@@H](C)CC)[C@@H](C)CC [HC133] (H-AIFCIQYNIRSFMNVKHAPWMK-NH2; N-terminus assumed),1800
6,CC[C@H](C)[C@H](NC(=O)[C@H](C)N)C(=O)N[C@@H](Cc1ccccc1)C(=O)N[C@@H](CS)C(=O)N[C@H](C(=O)N[C@@H](CCC(N)=O)C(=O)N[C@@H](Cc1ccc(O)cc1)C(=O)N[C@@H](CC(N)=O)C(=O)N[C@H](C(=O)N[C@@H](CCCNC(=N)N)C(=O)N[C@@H](CO)C(=O)N[C@@H](Cc1ccccc1)C(=O)N[C@@H](CCSC)C(=O)N[C@@H](CC(N)=O)C(=O)N[C@H](C(=O)N[C@@H](CCCCN)C(=O)N[C@@H](Cc1c[nH]cn1)C(=O)N[C@@H](Cc1c[nH]c2ccccc12)C(=O)N[C@@H](C)C(=O)N[C@@H](Cc1c[nH]c2ccccc12)C(=O)N[C@@H](CCSC)C(=O)N[C@@H](CCCCN)C(N)=O)C(C)C)[C@@H](C)CC)[C@@H](C)CC [HC134] (H-AIFCIQYNIRSFMNVKHWAWMK-NH2; N-terminus assumed),900
7,CC[C@H](C)[C@H](NC(=O)[C@H](C)N)C(=O)N[C@@H](Cc1ccccc1)C(=O)N[C@@H](CS)C(=O)N[C@H](C(=O)N[C@@H](CCC(N)=O)C(=O)N[C@@H](Cc1ccc(O)cc1)C(=O)N[C@@H](CC(N)=O)C(=O)N[C@H](C(=O)N[C@@H](CCCNC(=N)N)C(=O)N[C@@H](CO)C(=O)N[C@@H](Cc1ccccc1)C(=O)N[C@@H](CCSC)C(=O)N[C@@H](CC(N)=O)C(=O)N[C@H](C(=O)N[C@@H](CCCCN)C(=O)N[C@@H](Cc1c[nH]cn1)C(=O)N[C@@H](Cc1c[nH]c2ccccc12)C(=O)N1CCC[C@H]1C(=O)N[C@@H](C)C(=O)N[C@@H](CCSC)C(=O)N[C@@H](CCCCN)C(N)=O)C(C)C)[C@@H](C)CC)[C@@H](C)CC [HC135] (H-AIFCIQYNIRSFMNVKHWPAMK-NH2; N-terminus assumed),2700
8,CC[C@H](C)[C@H](NC(=O)[C@H](C)N)C(=O)N[C@@H](Cc1ccccc1)C(=O)N[C@@H](CS)C(=O)N[C@H](C(=O)N[C@@H](CCC(N)=O)C(=O)N[C@@H](Cc1ccc(O)cc1)C(=O)N[C@@H](CC(N)=O)C(=O)N[C@H](C(=O)N[C@@H](CCCNC(=N)N)C(=O)N[C@@H](CO)C(=O)N[C@@H](Cc1ccccc1)C(=O)N[C@@H](CCSC)C(=O)N[C@@H](CC(N)=O)C(=O)N[C@H](C(=O)N[C@@H](CCCCN)C(=O)N[C@@H](Cc1c[nH]cn1)C(=O)N[C@@H](Cc1c[nH]c2ccccc12)C(=O)N1CCC[C@H]1C(=O)N[C@@H](Cc1c[nH]c2ccccc12)C(=O)N[C@@H](C)C(=O)N[C@@H](CCCCN)C(N)=O)C(C)C)[C@@H](C)CC)[C@@H](C)CC [HC136] (H-AIFCIQYNIRSFMNVKHWPWAK-NH2; N-terminus assumed),1600
9,CC[C@H](C)[C@H](NC(=O)[C@H](C)N)C(=O)N[C@@H](Cc1ccccc1)C(=O)N[C@@H](CS)C(=O)N[C@H](C(=O)N[C@@H](CCC(N)=O)C(=O)N[C@@H](Cc1ccc(O)cc1)C(=O)N[C@@H](CC(N)=O)C(=O)N[C@H](C(=O)N[C@@H](CCCNC(=N)N)C(=O)N[C@@H](CO)C(=O)N[C@@H](Cc1ccccc1)C(=O)N[C@@H](CCSC)C(=O)N[C@@H](CC(N)=O)C(=O)N[C@H](C(=O)N[C@@H](CCCCN)C(=O)N[C@@H](Cc1c[nH]cn1)C(=O)N[C@@H](Cc1c[nH]c2ccccc12)C(=O)N1CCC[C@H]1C(=O)N[C@@H](Cc1c[nH]c2ccccc12)C(=O)N[C@@H](CCSC)C(=O)N[C@@H](C)C(N)=O)C(C)C)[C@@H](C)CC)[C@@H](C)CC [HC137] (H-AIFCIQYNIRSFMNVKHWPWMA-NH2; N-terminus assumed),5500
10,CCCC[C@H](NC(=O)[C@H](Cc1c[nH]c2ccccc12)NC(=O)[C@@H]1CCCN1C(=O)[C@H](Cc1c[nH]c2ccccc12)NC(=O)[C@H](Cc1c[nH]cn1)NC(=O)[C@H](CCCCN)NC(=O)[C@@H](NC(=O)[C@H](CC(N)=O)NC(=O)[C@H](CCCC)NC(=O)[C@H](Cc1ccccc1)NC(=O)[C@H](CO)NC(=O)[C@H](CCCNC(=N)N)NC(=O)[C@@H](NC(=O)[C@H](CC(N)=O)NC(=O)[C@H](Cc1ccc(O)cc1)NC(=O)[C@H](CCC(N)=O)NC(=O)[C@@H](NC(=O)[C@H](CS)NC(=O)[C@H](Cc1ccccc1)NC(=O)[C@@H](NC(=O)[C@H](C)NC)[C@@H](C)CC)[C@@H](C)CC)[C@@H](C)CC)C(C)C)C(=O)N[C@@H](CCCCN)C(N)=O [HC190] (H-[NMeA]IFCIQYNIRSF[Nle]NVKHWPW[Nle]K-NH2; N-terminus assumed),3600
